Assay results reported in patent US10576062B2, “Carbamoyloxymethyl triazole cyclohexyl acids as LPA antagonists” (Bristol-Myers Squibb Company, priority 2016, dated 2020).

What follows are molecules tested against T1, human LPA1 (Homo sapiens, UniProt Q92633) (assay: LPA1 functional antagonist assay (LPA-induced calcium flux)). Settings: CHO cells overexpressing human LPA1; inhibition of calcium flux induced by 10 nM LPA; read-out: hLPA1 IC50.
T1 construct: expressed in transfected cells; host or cells: Chinese hamster ovary (CHO) cells
Type: cell-based
Protocol: The effectiveness of compounds of the present invention as LPA1 inhibitors can be determined in an LPA1 functional antagonist assay as follows: Chinese hamster ovary cells overexpressing human LPA1 were plated overnight (15,000 cells/well) in poly-D-lysine coated 384-well microplates (Greiner bio-one, Cat #781946) in DMEM/F12 medium (Gibco, Cat #11039). Following overnight culture, cells were loaded with calcium indicator dye (AAT Bioquest Inc, Cat #34601) for 30 minutes at 37° C. The cells were then equilibrated to room temperature for 30 minutes before the assay. Test compounds solubilized in DMSO were transferred to 384 well non-binding surface plates (Corning, Cat #3575) using the Labcyte Echo acoustic dispense and diluted with assay buffer [1×HBSS with calcium/magnesium (Gibco Cat #14025-092), 20 mM HEPES (Gibco Cat #15630-080) and 0.1% fatty acid free BSA (Sigma Cat #A9205)] to a final concentration of 0.5% DMSO. Diluted compounds were added to the cells by FDSS6000 (Hamamatsu) at final concentrations ranging from 0.08 nM to 5 μM. and were then incubated for 20 min at room temperature at which time LPA (Avanti Polar Lipids Cat #857130C) was added at final concentrations of 10 nM to stimulate the cells. […] IC50 values were determined by fitting data to a 4-parameter logistic equation (GraphPad Prism, San Diego Calif.).

T1 sequence (Q92633 whole entry): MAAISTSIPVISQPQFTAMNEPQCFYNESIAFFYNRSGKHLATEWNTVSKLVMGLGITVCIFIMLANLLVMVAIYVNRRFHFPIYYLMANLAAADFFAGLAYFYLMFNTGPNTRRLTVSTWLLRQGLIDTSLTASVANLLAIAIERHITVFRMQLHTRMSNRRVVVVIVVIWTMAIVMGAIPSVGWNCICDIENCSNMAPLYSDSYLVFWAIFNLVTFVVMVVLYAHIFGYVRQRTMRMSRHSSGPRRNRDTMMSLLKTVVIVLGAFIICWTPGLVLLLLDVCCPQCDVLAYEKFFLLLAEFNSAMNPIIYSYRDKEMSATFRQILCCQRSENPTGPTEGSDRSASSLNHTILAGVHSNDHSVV

Row | Structure (SMILES) | IC50
1 | CCC(F)CN(C)C(=O)OCc1c(-c2cnc(O[C@H]3CCC[C@H](C(=O)O)C3)c(C)n2)nnn1C (mixture of isomers) [Example 254, (1S,3S)-3-((5-(5-((((2-fluorobutyl)(methyl)carbamoyl)oxy)methyl)-1-methyl-1H-1,2,3-triazol-4-yl)-3-methylpyrazin-2-yl)oxy)cyclohexane-1-carboxylic acid] | 132 nM
2 | CCC(F)CN(C)C(=O)OCc1c(-c2ccc(O[C@H]3CCC[C@H](C(=O)O)C3)c(C)n2)nnn1C (mixture of isomers) [Example 255, (1S,3S)-3-((6-(5-((((2-fluorobutyl)(methyl)carbamoyl)oxy)methyl)-1-methyl-1H-1,2,3-triazol-4-yl)-2-methylpyridin-3-yl)oxy)cyclohexane-1-carboxylic acid] | 57 nM
3 | Cc1nc(-c2nnn(C)c2COC(=O)N(C)CC2CCC2)ccc1O[C@H]1CCC[C@](F)(C(=O)O)C1 (racemic) [Example 11, (rac)-3-((6-(5-((((cyclobutylmethyl)(methyl)carbamoyl)oxy)methyl)-1-methyl-1H-1,2,3-triazol-4-yl)-2-methylpyridin-3-yl)oxy)-1-fluorocyclohexane-1-carboxylic Acid] | 12 nM

Same assay, conditions: human LPA1; read-out: hLPA1 IC50

Row | Structure (SMILES) | IC50
4 | CCCC1CCN(C(=O)OCc2c(-c3ccc(O[C@H]4CCC[C@H](C(=O)O)C4)c(C)n3)nnn2C)C1 (mixture of isomers) [Example 166, (1S,3S)-3-((2-methyl-6-(1-methyl-5-(((3-propylpyrrolidine-1-carbonyl)oxy)methyl)-1H-1,2,3-triazol-4-yl)pyridin-3-yl)oxy)cyclohexane-1-carboxylic acid] | 109 nM
5 | Cc1nc(-c2nnn(C)c2COC(=O)N2CCC(c3ccccc3)C2)ccc1O[C@H]1CCC[C@H](C(=O)O)C1 (mixture of isomers) [Example 169, (1S,3S)-3-((2-methyl-6-(1-methyl-5-(((3-phenylpyrrolidine-1-carbonyl)oxy)methyl)-1H-1,2,3-triazol-4-yl)pyridin-3-yl)oxy)cyclohexane-1-carboxylic acid] | 336 nM
6 | Cc1nc(-c2nnn(C)c2COC(=O)N(C)C2CC(F)C2)ccc1O[C@H]1CCC[C@H](C(=O)O)C1 (mixture of isomers) [Example 182, (1S,3S)-3-((6-(5-((((3-fluorocyclobutyl)(methyl)carbamoyl)oxy)methyl)-1-methyl-1H-1,2,3-triazol-4-yl)-2-methylpyridin-3-yl)oxy)cyclohexane-1-carboxylic acid] | 61 nM
7 | Cc1nc(-c2nnn(C)c2COC(=O)N(C)CC2CC2(C)C)ccc1O[C@H]1CCC[C@H](C(=O)O)C1 (mixture of isomers) [Example 184, (1S,3S)-3-((6-(5-(((((2,2-dimethylcyclopropyl)methyl)(methyl)carbamoyl)oxy)methyl)-1-methyl-1H-1,2,3-triazol-4-yl)-2-methylpyridin-3-yl)oxy)cyclohexane-1-carboxylic acid] | 37 nM
8 | CN(CC1CC1(C)C)C(=O)OCc1c(-c2ccc(O[C@H]3CCC[C@H](C(=O)O)C3)cn2)nnn1C (mixture of isomers) [Example 185, (1S,3S)-3-((6-(5-(((((2,2-dimethylcyclopropyl)methyl)(methyl)carbamoyl)oxy)methyl)-1-methyl-1H-1,2,3-triazol-4-yl)pyridin-3-yl)oxy)cyclohexane-1-carboxylic acid] | 86 nM
9 | CN(CC1CC1(F)F)C(=O)OCc1c(-c2ccc(O[C@H]3CCC[C@H](C(=O)O)C3)cn2)nnn1C (mixture of isomers) [Example 186, (1S,3S)-3-((6-(5-(((((2,2-difluorocyclopropyl)methyl)(methyl)carbamoyl)oxy)methyl)-1-methyl-1H-1,2,3-triazol-4-yl)pyridin-3-yl)oxy)cyclohexane-1-carboxylic acid] | 67 nM

Same assay, conditions: read-out: hLPA1 IC50

Row | Structure (SMILES) | IC50
10 | CN(C(=O)OCc1c(-c2ccc(O[C@H]3CCC[C@H](C(=O)O)C3)cn2)nnn1C)C1CCCC1 (racemic) [Example 18, (rac)-3-((6-(5-(((cyclopentyl(methyl)carbamoyl)oxy)methyl)-1-methyl-1H-1,2,3-triazol-4-yl)pyridin-3-yl)oxy)cyclohexane-1-carboxylic acid] | 21 nM
